Laboratory results reported in PubChem BioAssay AID248 (DTP/NCI, 2004).
Several values for one entry are separate records, joined by “and”; a condition that tells them apart may be missing. Identical values can stand only once. Inconclusive results and toxic doses are left out. Cut-off read from the data, not from the text of the source: active = T/C of 150% or more; inactive = T/C below 125%.

Test system: L1210 leukemia ip in BDF1 mice, survival T/C
Assay: NCI In Vivo Anticancer Drug Screen. Data for tumor model L1210 Leukemia (intraperitoneal) in B6D2F1 (BDF1) mice
Settings: endpoint: mean survival time, higher = longer survival
Summary of the method: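 Ratio derived from survival: compound-dosed mice over vehicle-dosed mice, all bearing a transplantable tumor.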

[1] = dose: 100.0 mg/kg/injection, schedule: Q04DX003 (ip), vehicle: saline
[2] = dose: 200.0 mg/kg/injection, schedule: Q04DX003 (ip), vehicle: saline
[3] = dose: 400.0 mg/kg/injection, schedule: Q04DX003 (ip), vehicle: saline
[4] = dose: 100.0 mg/kg/injection, schedule: Q01DX009 (ip), vehicle: Klucel (hydroxypropylcellulose) (HPC)
[5] = dose: 100.0 mg/kg/injection, schedule: Q04DX003 (ip), vehicle: Klucel (hydroxypropylcellulose) (HPC)
[6] = dose: 200.0 mg/kg/injection, schedule: Q01DX009 (ip), vehicle: Klucel (hydroxypropylcellulose) (HPC)
[7] = dose: 200.0 mg/kg/injection, schedule: Q04DX003 (ip), vehicle: Klucel (hydroxypropylcellulose) (HPC)
[8] = dose: 400.0 mg/kg/injection, schedule: Q01DX009 (ip), vehicle: Klucel (hydroxypropylcellulose) (HPC)
[9] = dose: 400.0 mg/kg/injection, schedule: Q04DX003 (ip), vehicle: Klucel (hydroxypropylcellulose) (HPC)
[10] = dose: 75.0 mg/kg/injection, schedule: Q01DX001 (ip), vehicle: saline
[11] = dose: 150.0 mg/kg/injection, schedule: Q01DX001 (ip), vehicle: saline
[12] = dose: 300.0 mg/kg/injection, schedule: Q01DX001 (ip), vehicle: saline
[13] = dose: 25.0 mg/kg/injection, schedule: Q01DX009 (ip), vehicle: saline
[14] = dose: 50.0 mg/kg/injection, schedule: Q01DX009 (ip), vehicle: saline
[15] = dose: 100.0 mg/kg/injection, schedule: Q01DX001 (ip), vehicle: saline with Tween-80
[16] = dose: 100.0 mg/kg/injection, schedule: Q01DX009 (ip), vehicle: saline

Measured: T/C

Cc1noc(/N=C/c2ccccc2)c1C
inactive: dose: 100.0 mg/kg/injection, schedule: Q01DX009 (ip), vehicle: other 95 % of control | [1] 103 % of control | dose: 200.0 mg/kg/injection, schedule: Q01DX009 (ip), vehicle: other 102 % of control | [2] 103 % of control | dose: 400.0 mg/kg/injection, schedule: Q01DX009 (ip), vehicle: other 107 % of control | [3] 96 % of control

BrC(Br)c1ccccc1C(Br)Br
inactive: dose: 100.0 mg/kg/injection, schedule: Q01DX009 (ip), vehicle: gum acacia 98 % of control | dose: 100.0 mg/kg/injection, schedule: Q04DX003 (ip), vehicle: gum acacia 99 % of control | dose: 200.0 mg/kg/injection, schedule: Q01DX009 (ip), vehicle: gum acacia 98 % of control | dose: 200.0 mg/kg/injection, schedule: Q04DX003 (ip), vehicle: gum acacia 108 % of control | dose: 400.0 mg/kg/injection, schedule: Q04DX003 (ip), vehicle: gum acacia 97 % of control

CC(=O)Nc1nc(-c2ccc([N+](=O)[O-])cc2)c(CCC=O)c(=O)[nH]1
inactive: [4] 88 % of control | [5] 90 % of control | [6] 94 % of control | [7] 98 % of control | [8] 102 % of control | [9] 98 % of control

O=C1Nc2ccc(Cl)cc2C1=O
inactive: [10] 90 % of control | [11] 93 % of control | [12] 93 % of control

CCOC(=O)C(NNc1ccccc1)C(c1ccccc1)[P+](c1ccccc1)(c1ccccc1)c1ccccc1 (stereo not given)
inactive: dose: 75.0 mg/kg/injection, schedule: Q01DX001 (ip), vehicle: carboxymethylcellulose (CMC) 101 % of control

COC(C(C)C)[CH]1[Hg][O]C1=O (stereo not given)
inactive: dose: 0.5 mg/kg/injection, schedule: Q01DX001 (ip), vehicle: steriod suspending solution 103 % of control | dose: 1.0 mg/kg/injection, schedule: Q01DX001 (ip), vehicle: steriod suspending solution 108 % of control | dose: 2.0 mg/kg/injection, schedule: Q01DX001 (ip), vehicle: steriod suspending solution 111 % of control

CCN(CC)CCCNc1cc(Cl)c(Cl)cc1[N+](=O)[O-]
inactive: dose: 12.0 mg/kg/injection, schedule: Q01DX009 (ip), vehicle: saline 104 % of control | [13] 95 % of control | [14] 91 % of control | [1] 95 % of control | [2] 90 % of control | [3] 96 % of control

O=S(=O)(O)OCc1cc(O)c(OS(=O)(=O)O)c(Br)c1Br
inactive: [15] 97 % of control | dose: 200.0 mg/kg/injection, schedule: Q01DX001 (ip), vehicle: saline with Tween-80 102 % of control | dose: 400.0 mg/kg/injection, schedule: Q01DX001 (ip), vehicle: saline with Tween-80 94 % of control

O=[N+]([O-])c1ccc(Cl)cc1/C=N\N=C1c2ccccc2-c2ccccc21
inactive: dose: 150.0 mg/kg/injection, schedule: Q01DX001 (ip), vehicle: other 94 % of control | dose: 300.0 mg/kg/injection, schedule: Q01DX001 (ip), vehicle: other 100 % of control

CCCCCCCCCCCCCCc1sc(N)nc1-c1ccccc1
inactive: dose: 100.0 mg/kg/injection, schedule: Q01DX001 (ip), vehicle: saline 98 % of control | dose: 200.0 mg/kg/injection, schedule: Q01DX001 (ip), vehicle: saline 98 % of control | dose: 400.0 mg/kg/injection, schedule: Q01DX001 (ip), vehicle: saline 95 % of control

CCCCCCCN=C(N)CSSCC(N)=NCCCCCCC
inactive: dose: 1.56 mg/kg/injection, schedule: Q04DX002 (ip), vehicle: saline with Tween-80 101 % of control | dose: 3.13 mg/kg/injection, schedule: Q04DX002 (ip), vehicle: saline with Tween-80 96 % of control | dose: 6.25 mg/kg/injection, schedule: Q04DX002 (ip), vehicle: saline with Tween-80 108 % of control and 115 % of control

O=C(O)CC(C(=O)O)C1CCCC1 (stereo not given)
inactive: [10] 102 % of control | [11] 94 % of control | [12] 92 % of control

CCCCN(CCCC)CC(O)c1cc(Cc2ccccc2)nc2c(Cl)cc(Cl)cc12 (stereo not given)
inactive: dose: 100.0 mg/kg/injection, schedule: Q04DX003 (ip), vehicle: saline with Tween-80 89 % of control | dose: 200.0 mg/kg/injection, schedule: Q04DX003 (ip), vehicle: saline with Tween-80 100 % of control | dose: 400.0 mg/kg/injection, schedule: Q04DX003 (ip), vehicle: saline with Tween-80 100 % of control

CCCCOB1OC(c2ccccc2)(c2ccccc2)c2ccccc2C(c2ccccc2)(c2ccccc2)O1
inactive: dose: 100.0 mg/kg/injection, schedule: Q01DX001 (ip), vehicle: carboxymethylcellulose (CMC) 91 % of control | dose: 200.0 mg/kg/injection, schedule: Q01DX001 (ip), vehicle: carboxymethylcellulose (CMC) 91 % of control | dose: 400.0 mg/kg/injection, schedule: Q01DX001 (ip), vehicle: carboxymethylcellulose (CMC) 98 % of control

CC(=O)Nc1ccc2ccccc2c1Br
inactive: [4] 104 % of control | [5] 95 % of control | [6] 103 % of control | [7] 95 % of control | [8] 119 % of control | [9] 95 % of control

CCCC[Si]CCCC
inactive: dose: 25.0 mg/kg/injection, schedule: Q01DX001 (ip), vehicle: saline with Tween-80 103 % of control | dose: 25.0 mg/kg/injection, schedule: Q01DX009 (ip), vehicle: saline with Tween-80 103 % of control | dose: 50.0 mg/kg/injection, schedule: Q01DX001 (ip), vehicle: saline with Tween-80 110 % of control | dose: 50.0 mg/kg/injection, schedule: Q01DX009 (ip), vehicle: saline with Tween-80 101 % of control | [15] 102 % of control | dose: 100.0 mg/kg/injection, schedule: Q01DX009 (ip), vehicle: saline with Tween-80 101 % of control

O=C1C=CC(=O)c2c(O)c(CO)c(CO)c(O)c21
inactive: dose: 0.78 mg/kg/injection, schedule: Q01DX009 (ip), vehicle: water 89 % of control | dose: 1.56 mg/kg/injection, schedule: Q01DX009 (ip), vehicle: water 86 % of control

CC(=O)NCC1CCC(CNC(C)=O)CC1 (stereo not given)
inactive: [16] 103 % of control | [1] 100 % of control | dose: 200.0 mg/kg/injection, schedule: Q01DX009 (ip), vehicle: saline 107 % of control | [2] 105 % of control | dose: 400.0 mg/kg/injection, schedule: Q01DX009 (ip), vehicle: saline 95 % of control | [3] 100 % of control

Nc1nc(N)c(N)c(Nc2ccc(O)cc2)n1
inactive: dose: 100.0 mg/kg/injection, schedule: Q01DX Z (ip), vehicle: saline 102 % of control

CCN(CC)CCOC(=O)C(c1ccccc1)C1CCCCC1 (stereo not given)
inactive: dose: 6.25 mg/kg/injection, schedule: Q01DX009 (ip), vehicle: saline 105 % of control | dose: 12.5 mg/kg/injection, schedule: Q01DX009 (ip), vehicle: saline 95 % of control | [13] 95 % of control | [14] 103 % of control | [16] 103 % of control

O=[N+]([O-])C12CCC(c3ccccc31)c1ccccc12
inactive: dose: 100.0 mg/kg/injection, schedule: Q04DX002 (ip), vehicle: gum acacia 103 % of control | dose: 200.0 mg/kg/injection, schedule: Q04DX002 (ip), vehicle: gum acacia 101 % of control | dose: 400.0 mg/kg/injection, schedule: Q04DX002 (ip), vehicle: gum acacia 92 % of control
